In patent US6355799B1, “Substituted benzene compounds, process for their preparation, and herbicidal and defoliant compositions containing them” (ISK Americas Incorporated, priority 1997, dated 2002):

What was measured:
Format in all cases: in vivo
[1] = test system: field corn (Zea mays L., var. Dekalb 535, CORN); assay: Post-emerge test, crop safety; conditions: post-emerge, crop damage rating 0-100 at 14 days after application
Outline: (§1)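 Herbicidal damage is scored 0 (none) to 100 (complete plant death) two weeks after a simulated field spray. Rates span 15–1000 g ai/ha, delivered in acetone at 187 l/ha. For post-emergence treatments, plants have 2–3 leaves and the spray carries 0.25% v/v non-ionic surfactant.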

[2] = test system: upland rice (Oryza sp., var. Tebonnet, RICE); assay: Post-emerge test, crop safety; conditions: post-emerge, crop damage rating 0-100 at 14 days after application
Outline: as §1

[3] = test system: sicklepod (Cassia obtusifolia, CASOB); assay: Post-emerge test, greenhouse herbicide activity screening; conditions: post-emerge, phytotoxicity rating 0-100 at 14 days after application
Outline: (§2)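 Compounds in acetone were track-sprayed at 187 l/ha, 15–1000 g ai/ha, onto sandy loam pots. Pre-emerge seeds were sown one day before spraying, with surface watering afterwards. Post-emerge plants were at the 2–3 leaf stage and sprayed with 0.25% v/v non-ionic surfactant. Injury was rated 0–100 at 14 days.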

[4] = test system: green foxtail (Setaria viridis, SETVI); assay: as above; conditions: post-emerge, phytotoxicity rating 0-100 at 14 days after application
Outline: as §2

[5] = test system: lambsquarters (Chenopodium album, CHEAL); assay: as above; conditions: post-emerge, phytotoxicity rating 0-100 at 14 days after application
Outline: as §2

[6] = test system: large crabgrass (Digitaria sanguinalis, DIGSA); assay: as above; conditions: post-emerge, phytotoxicity rating 0-100 at 14 days after application
Outline: as §2

[7] = test system: redroot pigweed (Amaranthus retroflexus, AMARE); assay: as above; conditions: post-emerge, phytotoxicity rating 0-100 at 14 days after application
Outline: as §2

[8] = test system: velvetleaf (Abutilon theophrasti, ABUTH); assay: as above; conditions: post-emerge, phytotoxicity rating 0-100 at 14 days after application
Outline: as §2

[9] = test system: johnsongrass (Sorghum halepense, SORHA); assay: as above; conditions: post-emerge, phytotoxicity rating 0-100 at 14 days after application
Outline: as §2

[10] = test system: barnyardgrass (Echinochloa crus-galli, ECHCG); assay: as above; conditions: post-emerge, phytotoxicity rating 0-100 at 14 days after application
Outline: as §2

[11] = test system: ivyleaf morningglory (Ipomoea hederacea, IPOHE); assay: as above; conditions: post-emerge, phytotoxicity rating 0-100 at 14 days after application
Outline: as §2

[12] = test system: sicklepod (Cassia obtusifolia, CASOB); assay: Pre-emerge test, greenhouse herbicide activity screening; conditions: pre-emerge, phytotoxicity rating 0-100 at 14 days after application
Outline: as §1

[13] = test system: green foxtail (Setaria viridis, SETVI); assay: as above; conditions: pre-emerge, phytotoxicity rating 0-100 at 14 days after application
Outline: as §1

[14] = test system: lambsquarters (Chenopodium album, CHEAL); assay: as above; conditions: pre-emerge, phytotoxicity rating 0-100 at 14 days after application
Outline: as §1

[15] = test system: large crabgrass (Digitaria sanguinalis, DIGSA); assay: as above; conditions: pre-emerge, phytotoxicity rating 0-100 at 14 days after application
Outline: as §1

[16] = test system: velvetleaf (Abutilon theophrasti, ABUTH); assay: as above; conditions: pre-emerge, phytotoxicity rating 0-100 at 14 days after application
Outline: as §1

[17] = test system: barnyardgrass (Echinochloa crus-galli, ECHCG); assay: as above; conditions: pre-emerge, phytotoxicity rating 0-100 at 14 days after application
Outline: as §1

[18] = test system: ivyleaf morningglory (Ipomoea hederacea, IPOHE); assay: as above; conditions: pre-emerge, phytotoxicity rating 0-100 at 14 days after application
Outline: as §1

[19] = test system: redroot pigweed (Amaranthus retroflexus, AMARE); assay: as above; conditions: pre-emerge, phytotoxicity rating 0-100 at 14 days after application
Outline: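 Plants grown in 10 cm pots of sandy loam mix received acetone-dissolved compounds through a moving flat-fan nozzle. Doses ranged from 15 to 1000 g ai/ha. Pre-emerge pots were seeded one day earlier, post-emerge pots 8–21 days earlier. Fourteen days on, each pot was graded 0–100 for damage.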

[20] = test system: field corn (Zea mays L., var. Dekalb 535, CORN); assay: Pre-emerge test, crop safety; conditions: crop damage, pre-emerge, phytotoxicity rating 0-100 at 14 days after application
Outline: (§3)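 Applied at 15–1000 g ai/ha from acetone in 187 l/ha spray volume. Post-emergence applications included 0.25% v/v non-ionic surfactant and reached plants sown 8–21 days before. Pre-emergence applications were incorporated by surface watering. Efficacy or crop damage was rated on a 0–100 scale after 14 days.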

[21] = test system: upland rice (Oryza sp., var. Tebonnet, RICE); assay: Pre-emerge test, crop safety; conditions: crop damage, pre-emerge, phytotoxicity rating 0-100 at 14 days after application
Outline: as §3

Cc1nn(-c2c(Cl)cc(Cl)cc2NC(=O)c2ccc(F)cc2F)c(=O)n1C(F)F [Compound 6-13]
Post-emerge Herbicidal Activity CORN ([1]; 63 g ai/ha): 15
Post-emerge Herbicidal Activity CORN ([1]; 250 g ai/ha): 20
Post-emerge Herbicidal Activity RICE ([2]; 63 g ai/ha): 10
Post-emerge Herbicidal Activity RICE ([2]; 250 g ai/ha): 30
Post-emerge Herbicidal Activity CASOB ([3]; 63 g ai/ha): 0
Post-emerge Herbicidal Activity CASOB ([3]; 250 g ai/ha): 30
Post-emerge Herbicidal Activity SETVI ([4]; 63 g ai/ha): 50
Post-emerge Herbicidal Activity SETVI ([4]; 250 g ai/ha): 90
Post-emerge Herbicidal Activity CHEAL ([5]; 63 g ai/ha): 85
Post-emerge Herbicidal Activity CHEAL ([5]; 250 g ai/ha): 90
Post-emerge Herbicidal Activity DIGSA ([6]; 63 g ai/ha): 20
Post-emerge Herbicidal Activity DIGSA ([6]; 250 g ai/ha): 30
Post-emerge Herbicidal Activity AMARE ([7]; 63 g ai/ha): 70
Post-emerge Herbicidal Activity AMARE ([7]; 250 g ai/ha): 90
Post-emerge Herbicidal Activity ABUTH ([8]; 63 g ai/ha): 100
Post-emerge Herbicidal Activity ABUTH ([8]; 250 g ai/ha): 90
Post-emerge Herbicidal Activity SORHA ([9]; 63 g ai/ha): 0
Post-emerge Herbicidal Activity SORHA ([9]; 250 g ai/ha): 10
Post-emerge Herbicidal Activity ECHCG ([10]; 63 g ai/ha): 0
Post-emerge Herbicidal Activity ECHCG ([10]; 250 g ai/ha): 30
Post-emerge Herbicidal Activity IPOHE ([11]; 63 g ai/ha): 50
Post-emerge Herbicidal Activity IPOHE ([11]; 250 g ai/ha): 60
Pre-emerge Herbicidal Activity CASOB ([12]; rate 63 g ai/ha): 0
Pre-emerge Herbicidal Activity CASOB ([12]; rate 250 g ai/ha): 0
Pre-emerge Herbicidal Activity SETVI ([13]; rate 63 g ai/ha): 80
Pre-emerge Herbicidal Activity SETVI ([13]; rate 250 g ai/ha): 100
Pre-emerge Herbicidal Activity CHEAL ([14]; rate 63 g ai/ha): 40
Pre-emerge Herbicidal Activity CHEAL ([14]; rate 250 g ai/ha): 100
Pre-emerge Herbicidal Activity DIGSA ([15]; rate 63 g ai/ha): 80
Pre-emerge Herbicidal Activity DIGSA ([15]; rate 250 g ai/ha): 90
Pre-emerge Herbicidal Activity ABUTH ([16]; rate 63 g ai/ha): 10
Pre-emerge Herbicidal Activity ABUTH ([16]; rate 250 g ai/ha): 40
Pre-emerge Herbicidal Activity ECHCG ([17]; rate 63 g ai/ha): 10
Pre-emerge Herbicidal Activity ECHCG ([17]; rate 250 g ai/ha): 40
Pre-emerge Herbicidal Activity IPOHE ([18]; rate 63 g ai/ha): 0
Pre-emerge Herbicidal Activity IPOHE ([18]; rate 250 g ai/ha): 0
Pre-emerge Herbicidal Activity AMARE ([19]; rate 63 g ai/ha): 60
Pre-emerge Herbicidal Activity AMARE ([19]; rate 250 g ai/ha): 100
Pre-emerge Herbicidal Activity CORN ([20]; rate 63 g ai/ha): 0
Pre-emerge Herbicidal Activity CORN ([20]; rate 250 g ai/ha): 0
Pre-emerge Herbicidal Activity RICE ([21]; rate 63 g ai/ha): 0
Pre-emerge Herbicidal Activity RICE ([21]; rate 250 g ai/ha): 10
